≈ marks a conversion by molar mass, not a printed value. Entries after “also recorded” stand apart in the source; their conditions may differ.
Legend:
MDA-MB-157 = experiment: 8-day growth inhibition; assay type: cell-based; conditions: Breast, MDA-MB-157, 8-day assay
IM-9 = experiment: 8-day growth inhibition; assay type: cell-based; conditions: B lymphoblast, IM-9, 8-day assay
HEC-108 = experiment: 8-day growth inhibition; assay type: cell-based; conditions: Endometrial, HEC-108, 8-day assay
JVM-2 = experiment: 8-day growth inhibition; assay type: cell-based; conditions: MCL, JVM-2, 8-day assay
Pfeiffer = experiment: 8-day growth inhibition; assay type: cell-based; conditions: DLBCL (GC), 8-day assay
HEC-1 = experiment: 8-day growth inhibition; assay type: cell-based; conditions: Endometrial, HEC-1, 8-day assay
sIL-2Rα/CD25 = experiment: Serum biomarker analysis, sIL-2Rα; assay type: in vivo, human; conditions: from 48 h onwards, all dose groups
Protocol: (§1) Two pre-dose, multiple post-dose and off-treatment time points were included. Serum samples were tested for concentrations of soluble vascular endothelial growth factor receptor (VEGFR)2, VEGFR3 and soluble interleukin-2 receptor α (sIL-2Rα/CD25), using the bead-based Human Soluble Cytokine Receptor Panel assay kit. The two baseline samples (days −3 and −2 prior to dosing) were averaged, and the mean was used to calculate percent change at each of the post-dosing time points.

HEC-1A = experiment: 8-day growth inhibition; assay type: cell-based; conditions: Endometrial, 8-day assay
T47D = experiment: 8-day growth inhibition; assay type: cell-based; conditions: Breast, 8-day assay
ARH-77 = experiment: 8-day growth inhibition; assay type: cell-based; conditions: Myeloma, ARH-77, 8-day assay
C3A = experiment: 8-day growth inhibition; assay type: cell-based; conditions: HCC, 8-day assay
Mino = experiment: 8-day growth inhibition; assay type: cell-based; conditions: MCL, 8-day assay
HEC-88nu = experiment: 8-day growth inhibition; assay type: cell-based; conditions: Endometrial, 8-day assay
HCC70 = experiment: 8-day growth inhibition; assay type: cell-based; conditions: Breast, HCC70, 8-day assay
MFE-296 = experiment: 8-day growth inhibition; assay type: cell-based; conditions: Endometrial, MFE-296, 8-day assay
SNU-182 = experiment: 8-day growth inhibition; assay type: cell-based; conditions: HCC, SNU-182, 8-day assay
PARP [1] = experiment: Sigmoidal inhibitory indirect-response PK/PD model of PAR formation; assay type: in vivo, human; conditions: model estimate
Protocol: The PD measurement utilised in the PK/PD model was the percentage inhibition of the formation of PAR, a marker for PARP activity,[19] which was calculated as % inhibition = […], where baseline was defined as the PAR response at time 0 on day –2.
The model parameters from the PK/PD analysis were then used to simulate the expected PAR responses of additional dosing regimens of E7449. All PK/PD modelling and subsequent response simulations were performed using Phoenix WinNonlin®, version 7.

SNG-M = experiment: 8-day growth inhibition; assay type: cell-based; conditions: Endometrial, 8-day assay
A549 = experiment: 8-day growth inhibition; assay type: cell-based; conditions: NSCLC, A549, 8-day assay
M14 = experiment: 8-day growth inhibition; assay type: cell-based; conditions: Melanoma, M14, 8-day assay
MDA-MB-468 = experiment: 8-day growth inhibition; assay type: cell-based; conditions: Breast, MDA-MB-468, 8-day assay
KLE = experiment: 8-day growth inhibition; assay type: cell-based; conditions: Endometrial, 8-day assay
sVEGFR3 = experiment: Serum biomarker analysis, sVEGFR3; assay type: in vivo, human; conditions: data not shown
Protocol: as §1

RL = experiment: 8-day growth inhibition; assay type: cell-based; conditions: NHL B cell lymphoma, 8-day assay
K562 = experiment: 8-day growth inhibition; assay type: cell-based; conditions: Erythroleukemia from CML patient, K562, 8-day assay
KG-1 = experiment: 8-day growth inhibition; assay type: cell-based; conditions: AML, KG-1, 8-day assay
SNU-423 = experiment: 8-day growth inhibition; assay type: cell-based; conditions: HCC, SNU-423, 8-day assay
sVEGFR2 = experiment: Serum biomarker analysis, sVEGFR2; assay type: in vivo, human; conditions: data not shown
Protocol: as §1

HCC1143 = experiment: 8-day growth inhibition; assay type: cell-based; conditions: Breast, HCC1143, 8-day assay
DB = experiment: 8-day growth inhibition; assay type: cell-based; conditions: DLBCL (GC), 8-day assay
HEC-1B = experiment: 8-day growth inhibition; assay type: cell-based; conditions: Endometrial, 8-day assay
Jeko-1 = experiment: 8-day growth inhibition; assay type: cell-based; conditions: MCL, Jeko-1, 8-day assay
U937 = experiment: 8-day growth inhibition; assay type: cell-based; conditions: Histiocytic lymphoma - monocytic, U937, 8-day assay
advanced solid tumours = experiment: Tumour response by RECIST 1.1; assay type: in vivo, human
Protocol: Tumour assessments (computed tomography, magnetic resonance imaging, photographs and bone scans, as suitable for tumour type), based on Response Evaluation Criteria in Solid Tumors version 1.1, were performed at screening and subsequently every 8 weeks until disease progression.

PARP [2] = experiment: PARP inhibition by PAR levels in PBMCs (ELISA); assay type: in vivo, human
Protocol: Inhibition of PARP activity was measured by quantifying PAR in PBMCs using an enzyme-linked immunosorbent assay (HT PARP in vivo Pharmacodynamic Assay II kit). PAR levels in PBMCs and the percentage change from baseline were summarised by dose and nominal sampling time point.

HCC1806 = experiment: 8-day growth inhibition; assay type: cell-based; conditions: Breast, HCC1806, 8-day assay

Q: What does the source list for `O=c1[nH]nc2c3c(cccc13)N=C(CN1Cc3ccccc3C1)N2` [E7449]?
A: IC50 (MDA-MB-157): 6.8 µM; IC50 (IM-9): 2.1 µM; IC50 (HEC-108): 5.97 µM; IC50 (JVM-2): 14 µM; IC50 (Pfeiffer): 0.71 µM; IC50 (HEC-1): 1.28 µM; sIL-2Rα change above baseline (sIL-2Rα/CD25): up to 150%; IC50 (HEC-1A): 2.96 µM; IC50 (T47D): 7.8 µM; IC50 (ARH-77): 3.2 µM; IC50 (C3A): 2.54 µM; IC50 (Mino): 3.4 µM; IC50 (HEC-88nu): 1.14 µM; IC50 (HCC70): 9.3 µM; IC50 (MFE-296): 0.67 µM; IC50 (SNU-182): 5.4 µM; kout (PARP [1]): 0.52 h⁻¹; EC50 (PARP [1]; plasma concentration, inhibition of PAR formation in PBMCs): 0.11 µg/mL (≈ 0.347 µM); kin (PARP [1]; rate of formation of PAR): 35.5 h⁻¹; IC50 (SNG-M): 1.36 µM; IC50 (A549): 2.2 µM; IC50 (M14): 6.7 µM; IC50 (MDA-MB-468): 2.5 µM; IC50 (KLE): 2.59 µM; Change in serum concentration of sVEGFR3 from baseline (sVEGFR3): No significant changes; IC50 (RL): 2.5 µM; IC50 (K562): 4.3 µM; IC50 (KG-1): 2 µM; IC50 (SNU-423): 19 µM; Change in serum concentration of sVEGFR2 from baseline (sVEGFR2): No significant changes; IC50 (HCC1143): 3.7 µM; IC50 (DB): 1.6 µM; IC50 (HEC-1B): 7.27 µM; IC50 (Jeko-1): 1.9 µM; IC50 (U937): 2.7 µM; ORR in patients with germline-mutated BRCA (advanced solid tumours; 1/6): 16.7%; Objective response rate (ORR) (advanced solid tumours; 2/41, all cohorts): 4.9%; Patients with BRCA mutations with partial response or stable disease (advanced solid tumours; 3/6): 50%; Best overall response of stable disease, patients (advanced solid tumours; 13 of 41 patients): 31.7%; Median duration of stable disease (advanced solid tumours; 13 patients): 162 days; Best Overall Response to E7449 (advanced solid tumours; BRCA-mutated patient, platinum naïve, breast): Progressive Disease; Best Overall Response to E7449 (advanced solid tumours; BRCA-mutated patient, platinum naïve, pancreas): Stable Disease; Best Overall Response to E7449 (advanced solid tumours; BRCA-mutated patient, platinum resistant, breast): Progressive Disease; Best Overall Response to E7449 (advanced solid tumours; BRCA-mutated patients, platinum sensitive, ovary (one line per patient)): Stable Disease; also recorded: Partial Response; also recorded: Progressive Disease; Patients with durable (>23 weeks) stable disease (advanced solid tumours; of 13 patients with SD): 8; Patients with a decrease in target lesion size (advanced solid tumours; of the 35 patients evaluated for best overall response): 13; Partial responses, patients (advanced solid tumours; ovarian cancer, 1 each in 600-mg and 800-mg cohorts): 2; Time of maximal decrease in PAR levels after administration (PARP [2]; 600 mg, fasted cohort): 2 to 4 h; Time of maximal decrease in PAR levels post treatment (PARP [2]; 600 mg, fed cohort): 4 to 8 h; Decrease in PAR levels (PARP [2]; 24-h post-dose time points (cycle 1, days 1, 7, 8 and 16)): ≥ 70%; Population mean PARP inhibition (PARP [2]; MTD 600 mg once daily, steady state, PAR in PBMCs): approximately 90%; Inhibition in PAR levels from baseline (PARP [2]; food-effect cohorts, 600 mg): up to 90%; IC50 (HCC1806): 1.8 µM
